The values below come from EP4806898A1, “HETEROARYL DERIVATIVE COMPOUND AND USE THEREOF” (Voronoi Inc., priority 2023, dated 2025).

Like-named read-outs stand apart in the source and are kept apart here.

Assay [1] concerns the target T1, recombinant USP1 protein (Homo sapiens, UniProt O94782, DEL125-138/DEL229-408/DEL608-737).
T1 sequence (O94782 with tags, fused parts or gaps DEL125-138/DEL229-408/DEL608-737): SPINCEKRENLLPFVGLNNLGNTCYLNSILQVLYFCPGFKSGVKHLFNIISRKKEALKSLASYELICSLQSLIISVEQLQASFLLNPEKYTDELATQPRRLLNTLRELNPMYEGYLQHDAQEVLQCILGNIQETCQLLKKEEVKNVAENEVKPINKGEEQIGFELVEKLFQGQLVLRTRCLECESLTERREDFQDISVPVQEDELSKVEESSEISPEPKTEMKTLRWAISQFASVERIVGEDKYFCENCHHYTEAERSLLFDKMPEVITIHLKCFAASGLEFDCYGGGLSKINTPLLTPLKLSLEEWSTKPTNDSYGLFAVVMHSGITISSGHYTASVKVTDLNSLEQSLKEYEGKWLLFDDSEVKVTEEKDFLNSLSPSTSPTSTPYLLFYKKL
The assay can be described thus: Binding affinity to recombinant USP1 protein by differential scanning fluorimetry. Conditions: read-out: ΔTm (°C). In short, it runs like this: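 Thermal shift readout: ΔTm is the compound-well melting temperature less the DMSO-well value, measured by real-time PCR. Compounds tested at 100 µM final against 0.03 mg/mL truncated USP1 (Δ1-66, Δ125-138, Δ229-408, Δ608-737) in pH 8.0 Tris buffer containing 150 mM NaCl, 2% glycerol, 1 mM DTT.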
On the technique in general: In DSF a fluorescence change marks the thermal transition of the protein.

The subject of assay [2] is UWB1.289 cells. Description: Cell proliferation inhibitory activity in BRCA1/2-mutant or HRD-positive cells (Cell Titer-Glo). It counts as cell-based. The following applies: read-out: GI50 UWB1.289 BRCA1 mut. The essentials:
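GI50 from CellTiter-Glo luminescence after 144 h compound exposure at 37 °C. Cells seeded at 1,000 per well in MEBM/RPMI1640 mix 16–24 h beforehand; […] from 10 µM down to 1.5 nM final (3-fold steps).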

[3] abbreviates: compound 100 µM, 0.03 mg/mL USP1 (Δ1-66, Δ125-138, Δ229-408, Δ608-737), Tm with compound minus Tm with DMSO.
[4] abbreviates: UWB1289, UWB1.289 cells, 144 hours after compound treatment, Cell Titer-Glo, 1.5 nM to 10 µM.

As usually defined, the ΔTm is the shift of the melting midpoint relative to a reference. A word on the GI50: it is the concentration giving 50% growth inhibition.

Regarding `CCN(CC)CCNC(=O)c1cc2cnc(-c3c(OC)ncnc3C3CC3)nc2n1Cc1ccc(-c2nc(C(F)(F)F)cn2C(C)C)cc1` [Example 52, 2-(4-cyclopropyl-6-methoxypyrimidin-5-yl)-N-(2-(diethylamino)ethyl)-7-(4-(1-isopropyl-4-(trifluoromethyl)-1H-imidazol-2-yl)benzyl)-7H-pyrrolo[2,3-d]pyrimidine-6-carboxamide], in assay [1] (setting [3]), the ΔTm at 100 µM was over 5 °C. In addition, in assay [2] (setting [4]), the 50% growth inhibitory concentration (GI50) fell in the range of 100 to 500 nM.

Take `COc1ncnc(C2CC2)c1-c1ncc2cc(C(=O)NCC3CCC(F)(F)C3)n(Cc3ccc(-c4nc(C(F)(F)F)cn4C(C)C)cc3)c2n1` (stereo not shown) [Example 80, 2-(4-cyclopropyl-6-methoxypyrimidin-5-yl)-N-((3,3-difluorocyclopentyl)methyl)-7-(4-(1-isopropyl-4-(trifluoromethyl)-1H-imidazol-2-yl)benzyl)-7H-pyrrolo[2,3-d]pyrimidine-6-carboxamide]: in assay [1] (setting [3]), the ΔTm at 100 µM is over 5 °C. Moreover, the GI50 in assay [2] (setting [4]) fell in the range of 100 to 500 nM.

In the case of `COc1ncnc(C2CC2)c1-c1ncc2cc(C(=O)N3C[C@H]4C[C@@H]3CO4)n(Cc3ccc(-c4nc(C(F)(F)F)cn4C(C)C)cc3)c2n1` [Example 65, ((1R,4R)-2-oxa-5-azabicyclo[2.2 .1]heptan-5-yl)(2-(4-cyclopropyl-6-methoxypyrimidin-5-yl)-7-(4-(1-isopropyl-4-(trifluoromethyl)-1H-imidazol-2-yl)benzyl)-7H-pyrrolo[2,3-d]pyrimidin-6-yl)methanone], in assay [1] (setting [3]), the ΔTm at 100 µM is over 5 °C. Further, the 50% growth inhibitory concentration (GI50) in assay [2] (setting [4]) fell in the range of 100 to 500 nM.

With `COc1ncnc(C2CC2)c1-c1ncc2cc(C(=O)N[C@@H]3CN(C)C[C@@H]3F)n(Cc3ccc(-c4nc(C(F)(F)F)cn4C)cc3)c2n1` [Example 217, 2-(4-cyclopropyl-6-methoxypyrimidin-5-yl)-N-((3R,4S)-4-fluoro-1-methylpyrrolidin-3-yl)-7-(4-(1-methyl-4-(trifluoromethyl)-1H-imidazol-2-yl)benzyl) -7H-pyrrolo[2,3-d]pyrimidine-6-carboxamide], in assay [1] (setting [3]), the ΔTm at 100 µM is over 5 °C. Besides, the concentration for 50% growth inhibition (GI50) in assay [2] (setting [4]) was under 100 nM.

Regarding `COc1ncnc(C2CC2)c1-c1ncc2cc(C(=O)N3CC[C@H](N(C)C)C3)n(Cc3ccc(-c4nc(C(F)(F)F)cn4C(C)C)cc3)c2n1` [Example 50, (S)-(2-(4-cyclopropyl-6-methoxypyrimidin-5-yl)-7-(4-(1-isopropyl-4-(trifluoromethyl)-1H-imidazol-2-yl)benzyl)-7H-pyrrolo[2,3-d]pyrimidin-6-yl) (3-(dimethylamino)pyrrolidin-1-yl)methanone], in assay [1] (setting [3]), the ΔTm at 100 µM is over 5 °C. The 50% growth inhibitory concentration (GI50) in assay [2] (setting [4]) is 100 to 500 nM.

Turning to `CNC1CN(C(=O)c2cc3cnc(-c4c(OC)ncnc4C4CC4)nc3n2Cc2ccc(-c3nc(C(F)(F)F)cn3C)cc2)C1` [Example 203, (2-(4-cyclopropyl-6-methoxypyrimid in-5-yl)-7-(4-(1-methyl-4-(trifluoromethyl)-1H-imidazol-2-yl)benzyl)-7H-pyrrolo[2,3-d]pyrimidin-6-yl) (3-(methylamino)azetidin-1-yl)methanone], in assay [1] (setting [3]), the ΔTm at 100 µM was over 5 °C. Besides, the GI50 in assay [2] (setting [4]) is under 100 nM.

Regarding `COc1ncnc(C2CC2)c1-c1ncc2cc(C(=O)NC[C@@H](C)O)n(Cc3ccc(-c4nc(C(F)(F)F)cn4C)cc3)c2n1` [Example 163, (R)-2-(4-cyclopropyl-6-methoxypyrimidin-5-yl)-N-(2-hydroxypropyl) -7-(4-(1-methyl-4-(trifluoromethyl)-1H-imidazol-2-yl)benzyl)-7H-pyrrolo[2,3-d]pyrimidine-6-carboxamide], the ΔTm at 100 µM in assay [1] (setting [3]) is over 5 °C. Also, the 50% growth inhibitory concentration (GI50) in assay [2] (setting [4]) is under 100 nM.

On to `COc1ncnc(C2CC2)c1-c1ncc2cc(C(=O)N[C@H]3CCN(C)C[C@H]3F)n(Cc3ccc(-c4nc(C(F)(F)F)cn4C)cc3)c2n1` [Example 162, 2-(4-cyclopropyl-6-methoxypyrimidin-5-yl)-N-((3R, 4S) -3-fluoro-1-methylpiperidin-4-yl)-7-(4-(1-methyl-4-(trifluoromethyl)-1H-imidazol-2-yl)benzyl)-7H-pyrrolo[2,3-d]pyrimidine-6-carboxamide], for which, in assay [1] (setting [3]), the shift in melting temperature (ΔTm) at 100 µM is over 5 °C. The GI50 in assay [2] (setting [4]) was under 100 nM.

Take `COc1ncnc(C2CC2)c1-c1ncc2cc(C(=O)N[C@@H]3CCN(C)CC3(F)F)n(Cc3ccc(-c4nc(C(F)(F)F)cn4C)cc3)c2n1` [Example 207, (R) -2-(4-cyclopropyl-6-methoxypyrimidin-5-yl)-N-(3,3-difluoro-1-methylpiperidin-4-yl)-7-(4-(1-methyl-4-(trifluoromethyl)-1H-imidazol-2-yl)benzyl)-7H-pyrrolo[2,3-d]pyrimidine-6-carboxamide]: the ΔTm at 100 µM in assay [1] (setting [3]) was over 5 °C. Moreover, in assay [2] (setting [4]), the GI50 was under 100 nM.

As to `COc1ncnc(C2CC2)c1-c1ncc2cc(C(=O)NC3CCN(C)CC3(F)F)n(Cc3ccc(-c4nc(C(F)(F)F)cn4C)cc3)c2n1` (stereo not shown) [Example 185, 2-(4-cyclopropyl-6-methoxypyrimidin-5-yl)-N-(3,3-difluoro-1-methylpiperidin-4-yl)-7-(4-(1-methyl-4-(trifluoromethyl)-1H-imidazol-2-yl)benzyl)-7H-pyrrolo[2,3-d]pyrimidine-6-carboxamide], in assay [1] (setting [3]), the ΔTm at 100 µM is over 5 °C. In addition, in assay [2] (setting [4]), the GI50 was under 100 nM.

Consider `COc1ncnc(C2CC2)c1-c1ncc2cc(C(=O)N[C@@H](C)CO)n(Cc3ccc(-c4nc(C(F)(F)F)cn4C(C)C)cc3)c2n1` [Example 113, (S)-2-(4-cyclopropyl-6-methoxypyrimidin-5-yl)-N-(1-hydroxypropan-2-yl)-7-(4-(1-isopropyl-4-(trifluoromethyl)-1H-imidazol-2-yl)benzyl)-7H-pyrrolo[2,3-d]pyrimidine-6-carboxamide], for which the ΔTm at 100 µM in assay [1] (setting [3]) is over 5 °C. In assay [2] (setting [4]), the GI50 is under 100 nM.

As to `CNC(=O)c1cc2cnc(-c3c(OC)ncnc3C3CC3)nc2n1Cc1ccc(-c2nc(C(F)(F)F)cn2C(C)C)cc1` [Example 1, 2-(4-cyclopropyl-6-methoxypyrimidin-5-yl)-7-(4-(1-isopropyl-4-(trifluoromethyl)-1H-imidazol-2-yl)benzyl)-N-methyl-7H-pyrrolo[2,3-d]pyrimidine-6-carboxamide], the shift in melting temperature (ΔTm) at 100 µM in assay [1] (setting [3]) is over 5 °C. Moreover, in assay [2] (setting [4]), the concentration for 50% growth inhibition (GI50) was under 100 nM.

`COc1ncnc(C2CC2)c1-c1ncc2cc(C(=O)NCC(C)(C)N)n(Cc3ccc(-c4nc(C(F)(F)F)cn4C(C)C)cc3)c2n1` [Example 118, N-(2-amino-2-methylpropyl)-2-(4-cyclopropyl-6-methoxypyrimidin-5-yl)-7-(4-(1-isopropyl-4-(trifluoromethyl)-1H-imidazol-2-yl)benzyl)-7H-pyrrolo[2,3-d]pyrimidine-6-carboxamide]: the ΔTm at 100 µM in assay [1] (setting [3]) is over 5 °C. For the same compound, the GI50 in assay [2] (setting [4]) is under 100 nM.

Take `COc1ncnc(C2CC2)c1-c1ncc2cc(C(=O)NC(C)(C)CO)n(Cc3ccc(-c4nc(C(F)(F)F)cn4C(C)C)cc3)c2n1` [Example 156, 2-(4-cyclopropyl-6-methoxypyrimidin-5-yl)-N-(1-hydroxy-2-methylpropan-2-yl)-7-(4-(1-isopropyl-4-(trifluoromethyl)-1H-imidazol-2-yl)benzyl)-7H-pyrrolo[2,3-d]pyrimidine-6-carboxamide]: the ΔTm at 100 µM in assay [1] (setting [3]) is over 5 °C. Further, in assay [2] (setting [4]), the concentration for 50% growth inhibition (GI50) was under 100 nM.

As for `COc1ncnc(C2CC2)c1-c1ncc2cc(C(=O)N3C[C@H](O)[C@H]3C)n(Cc3ccc(-c4nc(C(F)(F)F)cn4C(C)C)cc3)c2n1` [Example 112, (2-(4-cyclopropyl-6-methoxypyrimid in-5-yl)-7-(4-(1-isopropyl-4-(trifluoromethyl)-1H-imidazol-2-yl)benzyl)-7H-pyrrolo[2,3-d]pyrimidin-6-yl)((2R,3S)-3-hydroxy-2-methylazetidin-1-yl)methanone], in assay [1] (setting [3]), the thermal shift (ΔTm) at 100 µM is over 5 °C. Further, the 50% growth inhibitory concentration (GI50) in assay [2] (setting [4]) is under 100 nM.

Take `COc1ncnc(C2CC2)c1-c1ncc2cc(C(=O)NCC3(O)COC3)n(Cc3ccc(-c4nc(C(F)(F)F)cn4C(C)C)cc3)c2n1` [Example 140, 2-(4-cyclopropyl-6-methoxypyrimidin-5-yl)-N-((3-hydroxyoxetan-3-yl)methyl)-7-(4-(1-isopropyl-4-(trifluoromethyl)-1H-imidazol-2-yl)benzyl)-7H-pyrrolo[2,3-d]pyrimidine-6-carboxamide]: in assay [1], the thermal shift (ΔTm) at 100 µM was over 5 °C. In assay [2] (UWB1289, 144 h), the GI50 was under 100 nM.

Take `CNC(=O)c1cc2cnc(-c3c(Cl)cnn3C)nc2n1Cc1ccc(-c2nc(C(F)(F)F)cn2C)cc1` [Example 186, 2-(4-chloro-1-methyl-1H-pyrazol-5-yl)-N-methyl-7-(4-(1-methyl-4-(trifluoromethyl)-1H-imidazol-2-yl)benzyl)-7H-pyrrolo[2,3-d]pyrimidine-6-carboxamide]: the ΔTm at 100 µM in assay [1] (setting [3]) is over 5 °C. Besides, the 50% growth inhibitory concentration (GI50) in assay [2] (setting [4]) was under 100 nM.
